Laboratory results published in patent publication US8865734B2 (priority 2010, dated 2014).

Each molecule was assayed on in vitro grown Mycobacteria (M. tuberculosis) (assay: QUM: Quantification of in vitro grown Mycobacteria (in vitro growth fluorescence assay)). Details: MIC, 80% bacterial growth inhibition; in vitro growth.
Assay type: cell-based
Description: A 120,000 small molecule compound library was screened using a validated phenotypic cell-based assay (WO2010003533A2). Active compounds from the primary screen were confirmed via dose response in the intracellular (QIM) assay and an in vitro (QUM) assay, wherein the abbreviation “QIM” stands for Quantification of Intracellular Mycobacteria and the abbreviation “QUM” stands for Quantification of in vitro grown Mycobacteria. […] The MIC is the minimum concentration of compound required to obtain 80% bacterial growth inhibition.
The imidazopyridine compounds (scaffolds Ia and Ib; see Table 1) underwent derivatization according to the methods outlined below (Schemes 1-13). Resulting derivatives were examined for inhibitory activity (MIC) using the assays described above (Example 1) and the results are summarized in Table 1.
For “6-Chloro-N-(4-(4-(cyclopentyloxymethyl)piperidin-1-yl)benzyl)-2-ethylimidazo[1,2-a]pyridine-3-carboxamide [Compound 293]”, the “QUM (μM)” value was “+++ (+++ indicates <1 uM)”.

Same assay, conditions: Mycobacterium tuberculosis; MIC, 80% bacterial growth inhibition; in vitro growth; read-out: QUM
In the case of `CCc1nc2cc(OC)ccn2c1C(=O)NCc1ccc(N2CCN(c3ccc(F)cc3)CC2)cc1` [Compound 114, 2-Ethyl-N-(4-(4-(4-fluorophenyl)piperazin-1-yl)benzyl)-7-methoxyimidazo[1,2-a]pyridine-3-carboxamide], the MIC is reported as < 1 µM.
For `CCc1nc2c(OC)cccn2c1C(=O)NCc1ccc(N2CCN(c3ccc(F)cc3)CC2)cc1` [Compound 115, 2-Ethyl-N-(4-(4-(4-fluorophenyl)piperazin-1-yl)benzyl)-8-methoxyimidazo[1,2-a]pyridine-3-carboxamide], the MIC was < 1 µM.
For `CCc1nc2cc(Cl)ccn2c1C(=O)NCc1ccc(N2CCC(COC3CCCC3)CC2)cc1` [Compound 169, 7-Chloro-N-(4-(4-(cyclopentyloxymethyl)piperidin-1-yl)benzyl)-2-ethylimidazo[1,2-a]pyridine-3-carboxamide], the MIC was < 1 µM.
In the case of `CCc1nc2cc(Cl)ccn2c1C(=O)NCc1ccc(N2CCC(COC(F)F)CC2)cc1` [Compound 183, 7-Chloro-N-(4-(4-((difluoromethoxy)methyl)piperidin-1-yl)benzyl)-2-ethylimidazo[1,2-a]pyridine-3-carboxamide], the MIC is reported as < 1 µM.
In the case of `CCc1nc2ccc(C)cn2c1C(=O)NCc1ccc(N2CCOCC2)cc1` [Compound 219, 2-ethyl-6-methyl-N-(4-morpholinobenzyl)imidazo[1,2-a]pyridine-3-carboxamide], the MIC is reported as < 1 µM.
With `CCc1nc2ccc(Cl)cn2c1C(=O)NCc1ccc(N2CCC(C(=O)O)CC2)cc1` [Compound 220, 1-(4-((6-Chloro-2-ethylimidazo[1,2-a]pyridine-3-carboxamido)methyl)phenyl)piperidine-4-carboxylic acid] the MIC was < 1 µM.
In the case of `CCc1nc2cc(Cl)ccn2c1C(=O)NCc1ccc(N2CC3CC=CCC3C2)cc1` (stereo not drawn) [Compound 223, 7-Chloro-N-(4-(3a,4-dihydro-1H-isoindol-2(3H,7H,7aH)-yl)benzyl)-2-ethylimidazo[1,2-a]pyridine-3-carboxamide], the MIC is reported as < 1 µM.
In the case of `CCc1nc2cc(Cl)ccn2c1C(=O)NCc1ccc(N2CC3CCCCC3C2)cc1` (stereo not drawn) [Compound 224, N-(4-(1H-isoindol-2(3H,3aH,4H,5H,6H,7H,7aH)-yl)benzyl)-7-chloro-2-ethylimidazo[1,2-a]pyridine-3-carboxamide], the MIC is reported as < 1 µM.
`CCc1nc2cc(Cl)ccn2c1C(=O)NCc1ccc(-n2cc3c(c2)CCCC3)cc1` [Compound 225, 7-Chloro-2-ethyl-N-(4-(4,5,6,7-tetrahydro-2H-isoindol-2-yl)benzyl)imidazo[1,2-a]pyridine-3-carboxamide] was tested, and the MIC was < 1 µM.
With `CCc1nc2cc(C)ccn2c1C(=O)NCc1ccc(OC(F)(F)F)cc1` [Compound 249, 2-Ethyl-7-methyl-N-(4-(trifluoromethoxy)benzyl)imidazo[1,2-a]pyridine-3-carboxamide] the MIC was < 1 µM.
For `CCc1nc2cc(Br)ccn2c1C(=O)NCc1ccc(OC(F)(F)F)cc1` [Compound 250, 7-Bromo-2-ethyl-N-(4-(trifluoromethoxy)benzyl)imidazo[1,2-a]pyridine-3-carboxamide], the MIC was < 1 µM.
`CCc1nc2c(F)cccn2c1C(=O)NCc1ccc(OC(F)(F)F)cc1` [Compound 251, 2-Ethyl-8-fluoro-N-(4-(trifluoromethoxy)benzyl)imidazo[1,2-a]pyridine-3-carboxamide] was tested, and the MIC was < 1 µM.
In the case of `CCc1nc2cc(Cl)ccn2c1C(=O)NCc1ccc(-c2ccc(C=O)cc2)cc1` [Compound 252, 7-Chloro-2-ethyl-N-((4′-formylbiphenyl-4-yl)methyl)imidazo[1,2-a]pyridine-3-carboxamide], the MIC is reported as < 1 µM.
For `CCc1nc2ccc(C)cn2c1C(=O)NCc1ccc(Oc2ccc(OC(F)(F)F)cc2)cc1` [Compound 255, 2-Ethyl-6-methyl-N-(4-(4-(trifluoromethoxy)phenoxy)benzyl)imidazo[1,2-a]pyridine-3-carboxamide], the MIC was < 1 µM.
For `CCc1nc2cc(Cl)ccn2c1C(=O)OCc1ccc(Oc2ccc(F)cc2)cc1` [Compound 264], the MIC was < 1 µM.
`CCc1nc2ccccn2c1C(=O)NCc1ccc(N2CCC(c3ccc(F)cc3)CC2)cc1` [Compound 285, 2-Ethyl-N-(4-(4-(4-fluorophenyl)piperidin-1-yl)benzyl)imidazo[1,2-a]pyridine-3-carboxamide] was tested, and the MIC was < 1 µM.
In the case of `CCc1nc2ccc(Cl)cn2c1C(=O)NCc1ccc(N2CCC(c3ccc(OC(F)(F)F)cc3)CC2)cc1` [Compound 289, 6-Chloro-2-ethyl-N-(4-(4-(4-(trifluoromethoxy)phenyl)piperidin-1-yl)benzyl)imidazo[1,2-a]pyridine-3-carboxamide], the MIC is reported as < 1 µM.
For `CCc1nc2cc(Cl)ccn2c1C(=O)NCc1ccc(N2CCC(c3ccc(OC(F)(F)F)cc3)CC2)cc1` [Compound 290, 7-Chloro-2-ethyl-N-(4-(4-(4-(trifluoromethoxy)phenyl)piperidin-1-yl)benzyl)imidazo[1,2-a]pyridine-3-carboxamide], the MIC was < 1 µM.
With `CCOC(=O)C1CCN(c2ccc(CNC(=O)c3c(CC)nc4ccc(Cl)cn34)cc2)CC1` [Compound 300, Ethyl 1-(4-((6-chloro-2-ethylimidazo[1,2-a]pyridine-3-carboxamido)methyl)phenyl)piperidine-4-carboxylate] the MIC was < 1 µM.
In the case of `CCOC(=O)C1CCN(c2ccc(CNC(=O)c3c(CC)nc4cc(Cl)ccn34)cc2)CC1` [Compound 301, Ethyl 1-(4-((7-chloro-2-ethylimidazo[1,2-a]pyridine-3-carboxamido)methyl)phenyl)piperidine-4-carboxylate], the MIC is reported as < 1 µM.
For `CCc1nc2cc(Cl)ccn2c1C(=O)NCc1ccc(N2CCC(C(=O)O)CC2)cc1` [Compound 302, 1-(4-((7-Chloro-2-ethylimidazo[1,2-a]pyridine-3-carboxamido)methyl)phenyl)piperidine-4-carboxylic acid], the MIC was < 1 µM.
In the case of `CCc1nc2c(Br)cccn2c1C(=O)NCc1ccc(N2CCN(c3ccc(F)cc3)CC2)cc1` [Compound 305, 8-Bromo-2-ethyl-N-(4-(4-(4-fluorophenyl)piperazin-1-yl)benzyl)imidazo[1,2-a]pyridine-3-carboxamide], the MIC is reported as < 1 µM.
For `CCc1nc2c(-c3ccncc3)cccn2c1C(=O)NCc1ccc(N2CCN(c3ccc(F)cc3)CC2)cc1` [Compound 312, 2-Ethyl-N-(4-(4-(4-fluorophenyl)piperazin-1-yl)benzyl)-8-(pyridin-4-yl)imidazo[1,2-a]pyridine-3-carboxamide], the MIC was < 1 µM.
`CCc1nc2ccc(OC)cn2c1C(=O)NCc1ccc(N2CCOCC2)cc1` [Compound 313] was tested, and the MIC was < 1 µM.
With `CCc1nc2cc(OC)ccn2c1C(=O)NCc1ccc(N2CCOCC2)cc1` [Compound 314, 2-Ethyl-7-methoxy-N-(4-morpholinobenzyl)imidazo[1,2-a]pyridine-3-carboxamide] the MIC was < 1 µM.
With `CCc1nc2c(OC)cccn2c1C(=O)NCc1ccc(N2CCOCC2)cc1` [Compound 318, 2-Ethyl-8-methoxy-N-(4-morpholinobenzyl)imidazo[1,2-a]pyridine-3-carboxamide] the MIC was < 1 µM.
In the case of `CCc1nc2c(Br)cccn2c1C(=O)NCc1ccc(N2CCOCC2)cc1` [Compound 320, 8-Bromo-2-ethyl-N-(4-morpholinobenzyl)imidazo[1,2-a]pyridine-3-carboxamide], the MIC is reported as < 1 µM.
For `CCc1nc2c(-c3ccncc3)cccn2c1C(=O)NCc1ccc(N2CCOCC2)cc1` [Compound 327, 2-Ethyl-N-(4-morpholinobenzyl)-8-(pyridin-4-yl)imidazo[1,2-a]pyridine-3-carboxamide], the MIC was > 20 µM.
With `CCc1nc2ccc(Cl)cn2c1C(=O)NCc1ccc(C(=O)NCc2ccc(C(=O)N3CCOCC3)cc2)cc1` [Compound 332, 6-Chloro-2-ethyl-N-(4-((4-(morpholine-4-carbonyl)benzyl)carbamoyl)benzyl) imidazo[1,2-a]pyridine-3-carboxamide] the MIC was > 20 µM.
For `CCc1nc2cc(Cl)ccn2c1C(=O)NCc1ccc(C(=O)N2CCOCC2)cc1` [Compound 333, 7-Chloro-2-ethyl-N-(4-(morpholine-4-carbonyl)benzyl)imidazo[1,2-a]pyridine-3-carboxamide], the MIC was > 20 µM.
For `CCc1nc2ccccn2c1C(=O)NCc1ccc2oc(-c3ccc(F)cc3)nc2c1` [Compound 334, 2-Ethyl-N-((2-(4-fluorophenyl)benzo[d]oxazol-5-yl)methyl)imidazo[1,2-a]pyridine-3-carboxamide], the MIC was < 1 µM.
In the case of `CCc1nc2ccc(Cl)cn2c1C(=O)NCc1ccc2oc(-c3ccc(F)cc3)nc2c1` [Compound 335, 6-Chloro-2-ethyl-N-((2-(4-fluorophenyl)benzo[d]oxazol-5-yl)methyl)imidazo[1,2-a]pyridine-3-carboxamide], the MIC is reported as < 1 µM.
With `CCc1nc2cc(Cl)ccn2c1C(=O)NCc1ccc2oc(-c3ccc(F)cc3)nc2c1` [Compound 336, 7-Chloro-2-ethyl-N-((2-(4-fluorophenyl)benzo[d]oxazol-5-yl)methyl)imidazo[1,2-a]pyridine-3-carboxamide] the MIC was < 1 µM.
`CCc1nc2ccc(Cl)cn2c1C(=O)NCc1ccc(N2CCC(c3ccc(Cl)cc3)CC2)cc1` [Compound 337, 6-Chloro-N-(4-(4-(4-chlorophenyl)piperidin-1-yl)benzyl)-2-ethylimidazo[1,2-a]pyridine-3-carboxamide] was tested, and the MIC was < 1 µM.
For `CCc1nc2ccc(Cl)cn2c1C(=O)NCc1ccc(N2CCC(C(=O)N(C)C)CC2)cc1` [Compound 345, 6-Chloro-N-(4-(4-(dimethylcarbamoyl)piperidin-1-yl)benzyl)-2-ethylimidazo[1,2-a]pyridine-3-carboxamide], the MIC was < 1 µM.
